Experiments:
[1] = system: patients with PoPH; assay: Post-hoc: liver transplant perioperative risk classification (mPAP categories); type: in vivo, human; conditions: for LT perioperative risk classification: Week 12 High risk (mPAP => 45 mm Hg): 10 mg, N = 43
Experimental: (§1) Post-Hoc, Exploratory Criteria: • Proportion of patients with NT-proBNP decrease from above 300 ng/L to below this threshold • Odds ratio for improvement to a more favorable liver transplant perioperative risk category • Odds ratio for becoming eligible for the MELD exception • Odds ratio for improvement to a more favorable waitlist mortality risk category
(§2) Risk categories related to liver transplant (transplant perioperative risk classification, MELD exception eligibility and waitlist mortality risk) were analyzed descriptively by treatment group using shift tables from baseline to Week 12 with categories as defined in Example 1.
(§3) LT perioperative risk classification, MELD exception eligibility, and waitlist mortality analyses were performed after the database lock and SDTMs delivery for the Double-Blind period. Number (%) of patients in following categories were summarized and presented in shift tables. The estimated odds ratio for risk improvement and corresponding 95% confidence intervals were obtained from an exact logistic regression (macitentan vs placebo) with factors for treatment and risk category at baseline.
The presence of moderate to severe pulmonary hypertension in patients with liver disease increases the risk of graft dysfunction and cardiopulmonary-related mortality after orthotopic liver transplant. According to the International Liver Transplant Society (ILTS) Practice Guidelines, liver transplant is conditional to appropriate hemodynamics due to the risk of cardiopulmonary-related mortality after liver transplant: • mPAP ≥45 mmHg is an absolute contraindication to liver transplant (high risk) as it is associated with 100% cardiopulmonary mortality • mPAP ≥35 mmHg and <45 mmHg, with increased PVR is associated with increased mortality (intermediate risk) of about 50%
mPAP <35 mmHg is associated with a low risk for liver transplant • LT perioperative risk classification

[2] = system: patients with PoPH; assay: Post-hoc: liver transplant waitlist mortality risk (PVR categories); type: in vivo, human
Experimental: as §1, §2, §3
The outcomes of PoPH patients who were granted MELD exception in the US were analyzed. […] Age, initial MELD score and initial PVR were significant predictors of waitlist mortality, although their accuracy was limited. The results were illustrated by defining 4 groups depending on their PVR and MELD score: high PVR (PVR>450 dyn·sec·cm^−5), low PVR (PVR ≤450 dyn·sec·cm^−5), high MELD (MELD >12) or low MELD (MELD ≤12).

[3] = system: patients with PoPH; assay: Post-hoc: change in mPAP / PVR by baseline mPAP / PVR category; type: in vivo, human; conditions: for PVR Change from baseline to Week 12, Median / PVR Week 12, Median / PVR Change from baseline to Week 12, Mean / PVR Week 12, Mean / mPAP Week 12, Median / mPAP Week 12, Mean / mPAP Change from baseline to Week 12, Median / mPAP Change from baseline to Week 12, Mean: 10 mg, Full Analysis Set
Description: This example provides post hoc analyses of the study performed in Example 1. These analyses include: • To assess the effect of macitentan on mean pulmonary arterial pressure (mPAP) related to pre-treatment mPAP. • To assess the effect of macitentan on pulmonary vascular resistance (PVR) related to pre-treatment PVR.
The following exploratory endpoints were defined for the post hoc analyses: • mPAP change related to pre-treatment mPAP. • PVR change related to pre-treatment PVR
All analyses were performed on the full analysis set (FAS, as per randomization, N=85) and no data imputation was performed.
Risk categories are noted in Table 38. To analyze change in mPAP relative to baseline mPAP, the same mPAP categories were used as for transplant perioperative risk classification (Table 38). For the analysis of change in PVR relative to baseline PVR, waitlist mortality risk PVR categories were used (Table 38).

[4] = system: patients with PoPH; assay: PORTICO safety: Child-Pugh classification and MELD score; type: in vivo
Description: For the evaluation of treatment-emergent safety endpoints in the DB phase, the observation period for each individual subject started at the time of the first administration of macitentan or placebo and ended with the start of OL treatment or 30 days after DB treatment discontinuation (whichever occurred first). The safety variables listed below apply to the DB treatment-emergent period and the macitentan treatment-emergent period. The DB treatment-emergent period was defined as the period from the DB treatment start date up to the EOT-DB+30 days or to the EOT-DB for patients entering OL. The macitentan treatment-emergent period was defined as the period from the first intake of macitentan up to end of macitentan treatment (EOMT)+30 days. EOMT was defined as EOT-DB (for patient who received macitentan only in the DB period) or EOT-OL when applicable. […]

[5] = Week 12, exact logistic regression
[6] = after 12 weeks, FAS no imputation, 18 patients
[7] = PVR at baseline <= 450 dyn · sec/cm^5, n 12
[8] = PVR at baseline > 450 dyn · sec/cm^5, n 27
[9] = mPAP at baseline < 35 mmHg, n 2

CCCNS(=O)(=O)Nc1ncnc(OCCOc2ncc(Br)cn2)c1-c1ccc(Br)cc1 [macitentan, N-[5-(4-Bromophenyl)-6-[2-[(5-bromo-2-pyrimidinyl)oxy]ethoxy]-4-pyrimidinyl]-N′-propylsulfamide]
LT perioperative risk classification: Week 12 High risk (mPAP => 45 mm Hg) ([1]; Baseline Intermediate risk (n = 16)): 0 n (%) | LT perioperative risk classification: Week 12 High risk (mPAP => 45 mm Hg) ([1]; Baseline Low risk (n = 2)): 0 n (%) | Odds to change to a more favorable LT perioperative risk category, macitentan vs placebo [1, 5]: 3.73 times | Patients improving to a more favorable LT perioperative risk category [1, 6]: 41.9% | LT perioperative risk: Between-treatment odds ratio for improvement, OR ([1]; macitentan vs placebo, exact logistic regression, 95% CI 1.175, 13.401, p-value 0.0224): 3.732 | PVR risk categories (waitlist mortality): Week 12 Category 2 (PVR > 450 dyn · sec/cm^5) ([2]; Baseline Category 2 (n = 30), Full analysis set, 10 mg, N = 43): 9 n (%) | Odds of changing to the low waitlist mortality risk group, macitentan vs placebo [2, 5]: 10.48 times | Patients moving from waitlist high-risk group (PVR >450 dyn·s·cm^−5) to low-risk group [2, 6]: 41.9% | PVR risk categories: Between-treatment odds ratio for improvement, OR ([2]; macitentan vs placebo, exact logistic regression, 95% CI 2.381, 66.810, p-value 0.0005): 10.479 | Macitentan-treated patients with a decrease in PVR at Week 12 compared to baseline ([3]; FAS no imputation, 41 patients): 95.3% | Macitentan-treated patients with a decrease in mPAP at Week 12 compared to baseline ([3]; FAS no imputation, thirty-eight patients): 88.3% | PVR Change from baseline to Week 12, Median [3, 7]: −120.0 dyn · sec/cm^5 | PVR Week 12, Median [3, 7]: 248.7 dyn · sec/cm^5 | PVR Change from baseline to Week 12, Mean ([3]; PVR at baseline <= 450 dyn · sec/cm^5, n 12, SD 71.23): −116.4 dyn · sec/cm^5 | PVR Week 12, Mean ([3]; PVR at baseline <= 450 dyn · sec/cm^5, n 12, SD 86.64): 264.6 dyn · sec/cm^5 | PVR Change from baseline to Week 12, Median [3, 8]: −244.9 dyn · sec/cm^5 | PVR Week 12, Median [3, 8]: 382.5 dyn · sec/cm^5 | PVR Change from baseline to Week 12, Mean ([3]; PVR at baseline > 450 dyn · sec/cm^5, n 27, SD 125.48): −249.4 dyn · sec/cm^5 | PVR Week 12, Mean ([3]; PVR at baseline > 450 dyn · sec/cm^5, n 27, SD 130.62): 400.7 dyn · sec/cm^5 | Mean (SD) decrease in mPAP at Week 12 ([3]; and <45 mmHg): 5.2 (4.22) mmHg | Mean (SD) decrease in PVR at Week 12 ([3]; baseline PVR <450 dyn·s/cm^5): 116.4 (71.23) dyn·s/cm^5 | Mean (SD) decrease in PVR at Week 12 ([3]; baseline PVR >450 dyn·s/cm^5): 249.4 (125.48) dyn·s/cm^5 | Mean (SD) decrease in mPAP at Week 12 ([3]; baseline mPAP <35 mmHg): 2.0 (5.66) mmHg | Mean (SD) decrease in mPAP at Week 12 ([3]; baseline mPAP ≥45 mmHg): 7.8 (5.27) mmHg | mPAP Week 12, Median ([3]; mPAP at baseline 35 to < 45 mmHg, n 13): 36.0 mmHg | mPAP Week 12, Mean ([3]; mPAP at baseline 35 to < 45 mmHg, n 13, SD 3.84): 35.4 mmHg | mPAP Change from baseline to Week 12, Median [3, 9]: −2.0 mmHg | mPAP Week 12, Median [3, 9]: 29.0 mmHg | mPAP Change from baseline to Week 12, Mean ([3]; mPAP at baseline < 35 mmHg, n 2, SD 5.66): −2.0 mmHg | mPAP Week 12, Mean ([3]; mPAP at baseline < 35 mmHg, n 2, SD 8.49): 29.0 mmHg | mPAP Week 12, Median ([3]; mPAP at baseline >= 45 mmHg, n 24): 43.0 mmHg | mPAP Week 12, Mean ([3]; mPAP at baseline >= 45 mmHg, n 24, SD 7.04): 44.0 mmHg | mPAP Change from baseline to Week 12, Median ([3]; mPAP at baseline ≥ 35 to < 45 mmHg, n 13): −5.0 mmHg | mPAP Change from baseline to Week 12, Mean ([3]; mPAP at baseline ≥ 35 to < 45 mmHg, n 13, SD 4.22): −5.2 mmHg | mPAP Change from baseline to Week 12, Median ([3]; mPAP at baseline ≥ 45 mmHg, n 24): −7.5 mmHg | mPAP Change from baseline to Week 12, Mean ([3]; mPAP at baseline ≥ 45 mmHg, n 24, SD 5.27): −7.8 mmHg | Patients with worsening in Child-Pugh category ([4]; DB phase, macitentan group n=23): none | Median MELD score at Week 12 ([4]; DB phase, range 6-15): 10 | Patients worsening from Child-Pugh category A to B during macitentan treatment ([4]; combined DB+OL phase, patient had placebo in DB phase): 1 patient

Reference: patent publication US20220257595A1, “MACITENTAN FOR USE IN TREATING PORTOPULMONARY HYPERTENSION” (ACTELION PHARMACEUTICALS LTD, priority 2019, published 2022)
